# Columns and labels:
# [1] = system: bceAB and tcs01 genes in S. pneumoniae D39 WT; test: Quantification of gene expression by qPCR; format: cell-based, Streptococcus pneumoniae; conditions: D39 wild-type; vancomycin 375 ng/ml for 15 min; n = 8
# Protocol: S. pneumoniae D39 WT and Δtcs01 strains were routinely grown to OD600nm = 0.3 in THY. Then 1 μg/mL of bacitracin was added to the growth media for up to 30 min. Samples were taken at time points shown in the results section. Next, the cultures were mixed with RNA protect (Qiagen) at 1:1 ratio and incubated at room temperature for 5 min and centrifuged for 10 min at 3, 200 g at 4°C. The supernatant was decanted and the pellet was stored at -80°C. The bacteria were resuspended in 100 μL of sterile Tris-EDTA (TE), containing 15 mg/mL lysozyme (Sigma) then 20 μL of Proteinase K (20 mg/mL) (Roche) were added. The sample was vortexed 5 times for 10 sec at two-minutes intervals. Then 350 μL of lysis buffer from the Nucleospin RNA kit (Macherey-Nagel) were added to the sample with 3.5 μL of β-mercaptoethanol and 25 mg of glass beads (Sigma). The cells were lysed by continual vortexing for 5 min. The mRNA was extracted according to the manufacturer’s instructions. After elution, RNA samples were incubated with 5 μL of DNAse for 20 min at room temperature, then inactivated by heating for 70°C for 5 min. RNA concentration was measured using Nanovue (GE Healthcare). For cDNA synthesis 1 μg of RNA was generally used with the SuperScript III kit (Invitrogen) containing a reverse transcriptase, a set of primers, dNTPs, MgCl2 random hexamers and […] after the cDNA generation according to manufacturer’s instructions. Samples were then stored at -20°C. qPCR measurements were done with 2.5 μL of cDNA mixed with 1 μL (3 μM final) of forward and reverse primers, 5 μL iQ SYBR Green Supermix (BioRad) and 0.5 μL water using the CFX Connect Optical Module (BioRad) program as follows: 95°C for 3 min, then a repeat 40 times of 95°C for 10 sec, 55°C for 30 sec, and a fluorescence reading.
# [2] = target: BceAB transporter from S. pneumoniae (Streptococcus pneumoniae, UniProt A0A0H2ZN40); format: biochemical; conditions: BceAB proteoliposomes; Fig 7B; triplicates, representative of at least two experiments
# Protocol: (§1) E. coli BL21(DE3) cells were transformed with pRSF-Duet1-BceAB WT, K48A or E170Q and selected on LB-agar plates containing 50 μg/mL kanamycin. One colony was inoculated into in 2L-baffled flasks containing 500 mL of 2YT medium and 50 μg/mL kanamycin and grown at 37°C, 180 rpm to OD600 of 0.6. Protein expression was induced by adding IPTG to a final concentration of 1 mM. Induction was performed overnight at 25°C and cells were harvested by centrifugation at 7,000 g for 20 min.
# (§2) Cells were resuspended in buffer A (HEPES-NaOH 100 mM pH 8.0, NaCl 150 mM) and lysed by passaging them three times through a cell disruptor (Microfluidizer, Microfluidics) at 18,000 psi (or 1,24 x 108 Pa). Undisrupted cells and cell debris were removed by centrifugation at 15,000 x g for 30 min at 4°C. Membranes were harvested from the supernatant after ultracentrifugation at 150,000 x g for 1 h at 4°C. Membranes were resuspended in 20 mL of buffer A and centrifuged once again at 150,000 x g for 1 h at 4°C. Membrane pellets were homogenized in buffer HEPES-NaOH 100 mM pH 8.0, NaCl 150 mM and 20% glycerol, and stored at -80°C.
# (§3) For the purification of BceAB, membranes from 0,5 L cell culture were diluted in buffer B (100 mM d’HEPES-NaOH pH 8, 150 mM NaCl, 10% glycerol) to a protein concentration of 4 mg/mL and solubilized with 0.5% (w/v) LMNG for 2 h at 4°C. After ultracentrifugation at 150,000 x g for 1 h at 4°C, the supernatant containing solubilized proteins was diluted four times using buffer B and loaded on Ni^2+-charged immobilized metal-ion affinity chromatography (IMAC) column (1 mL HisTrap HP, Cytiva). The column was washed with 10 mL of buffer B containing 0.005% (w/v) LMNG and 20 mM of imidazole. The column was further washed with the same buffer until OD280nm reached basal levels. BceAB was eluted by buffer B containing 0.005% (w/v) LMNG and an imidazole gradient from 20 to 500 mM of imidazole. Purified BceAB was dialyzed into buffer B containing 0.005% (w/v) LMNG and stored at -80°C.
# (§4) The proteoliposomes were prepared as previously described for the transporter BmrA [50]. Proteoliposomes were loaded on sucrose gradient with different layers of 400 μL of 50 mM HEPES-KOH pH 8.0 buffer containing 30, 20, 15 or 10% of sucrose. One mL of proteoliposomes was loaded on the top of the sucrose gradient and ultra-centrifuged at 200,000 x g for 12 h at 4°C. Proteoliposomes were typically collected from the 15% layer and were loaded on SDS-PAGE to analyze and quantify the presence of BceAB by using a standard-curve of purified BceAB and ImageJ.
# (§5) These activities were performed as previously described.
# S. pneumoniae R800 Δhk01 = format: cell-based, Streptococcus pneumoniae; conditions: R800 strain; 2-fold broth dilution, Todd-Hewitt medium, 37°C, 15 h; at least biological triplicates, each technical duplicates
# Protocol: (§6) The MIC of various antimicrobial peptides for R6, R800 and D39 strains was determined by classical 2-fold broth dilution method. Cells were first grown in Todd-Hewitt medium at 37°C without agitation and in anaerobic conditions until the absorbance reaches approximatively 0.3. Complementation strains were grown with 0.5 μM ComS inducer until the appropriate OD. Cells were then diluted at final OD600nm = 0.002 in 96-well plates containing 300 μL of Todd-Hewitt medium (and 2 μM ComS inducer for the complementation strains) with serial dilutions of antimicrobial peptides. Pneumococcal growth was monitored by a microplate reader (TECAN) at 37°C without agitation. The absorbance was followed at 600 nm every 15 min for 15 h.
# S. pneumoniae R6 WT = format: cell-based, Streptococcus pneumoniae; conditions: R6 strain
# Protocol: as §6
# [3] = system: S. pneumoniae R800 ΔbceAB; format: cell-based, Streptococcus pneumoniae; conditions: R800 strain; 2-fold broth dilution, Todd-Hewitt medium, 37°C, 15 h; at least biological triplicates, each technical duplicates
# Protocol: as §6
# S. pneumoniae D39 WT = format: cell-based, Streptococcus pneumoniae; conditions: D39 strain
# Protocol: as §6
# [4] = system: S. pneumoniae R800 ΔbceAB-Δhk01-PcomX-hk01; format: cell-based, Streptococcus pneumoniae; conditions: R800 complementation strain, 2 μM ComS inducer; 2-fold broth dilution, Todd-Hewitt medium, 37°C, 15 h; at least biological triplicates, each technical duplicates
# Protocol: as §6
# S. pneumoniae R6 ΔbceAB = format: cell-based, Streptococcus pneumoniae; conditions: R6 strain; 2-fold broth dilution, Todd-Hewitt medium, 37°C, 15 h; two to four biological replicates, each technical duplicates
# Protocol: as §6
# S. pneumoniae R6 Δtcs01 = format: cell-based, Streptococcus pneumoniae; conditions: R6 strain; 2-fold broth dilution, Todd-Hewitt medium, 37°C, 15 h; two to four biological replicates, each technical duplicates
# Protocol: as §6
# S. pneumoniae R800 WT = format: cell-based, Streptococcus pneumoniae; conditions: R800 strain; 2-fold broth dilution, Todd-Hewitt medium, 37°C, 15 h; at least biological triplicates, each technical duplicates
# Protocol: as §6
# [5] = system: S. pneumoniae D39 ΔbceAB/tcs01; format: cell-based, Streptococcus pneumoniae; conditions: D39 strain; 2-fold broth dilution, Todd-Hewitt medium, 37°C, 15 h; two to four biological replicates, each technical duplicates
# Protocol: as §6
# [6] = system: S. pneumoniae R6 ΔbceAB/tcs01; format: cell-based, Streptococcus pneumoniae; conditions: R6 strain; 2-fold broth dilution, Todd-Hewitt medium, 37°C, 15 h; two to four biological replicates, each technical duplicates
# Protocol: as §6
# S. pneumoniae D39 Δtcs01 = format: cell-based, Streptococcus pneumoniae; conditions: D39 strain; 2-fold broth dilution, Todd-Hewitt medium, 37°C, 15 h; two to four biological replicates, each technical duplicates
# Protocol: as §6
# [7] = system: S. pneumoniae R800 bceAB-gfp; format: cell-based, Streptococcus pneumoniae; conditions: R800 strain; 2-fold broth dilution, Todd-Hewitt medium, 37°C, 15 h; at least biological triplicates, each technical duplicates
# Protocol: as §6
# S. pneumoniae D39 ΔbceAB = format: cell-based, Streptococcus pneumoniae; conditions: D39 strain; 2-fold broth dilution, Todd-Hewitt medium, 37°C, 15 h; two to four biological replicates, each technical duplicates
# Protocol: as §6
# [8] = system: S. pneumoniae R800 Δhk01-PcomX-hk01; format: cell-based, Streptococcus pneumoniae; conditions: R800 complementation strain, 2 μM ComS inducer; 2-fold broth dilution, Todd-Hewitt medium, 37°C, 15 h; at least biological triplicates, each technical duplicates
# Protocol: as §6
# [9] = system: Nc1ncnc2c1ncn2[C@@H]1O[C@H](COP(=O)(O)OP(=O)(O)OP(=O)(O)O)[C@@H](O)[C@H]1O; test: purified protein, by the assay type; format: biochemical, Streptococcus pneumoniae; conditions: other: ATPase/GTPase activity as a function of nucleotide concentration, fitted with positive cooperativity; proteoliposomes; pH 8.0
# Protocol: as §1, §2, §3, §4, §5
# [10] = system: Nc1nc2c(ncn2[C@@H]2O[C@H](COP(=O)(O)OP(=O)(O)OP(=O)(O)O)[C@@H](O)[C@H]2O)c(=O)[nH]1; test: purified protein, by the assay type; format: biochemical, Streptococcus pneumoniae; conditions: other: ATPase/GTPase activity as a function of nucleotide concentration, fitted with positive cooperativity; proteoliposomes; pH 8.0
# Protocol: as §1, §2, §3, §4, §5
# [11] = system: S. pneumoniae R6 WT and mutant strains; test: Susceptibility to HNP-1 (colony counts); format: cell-based, Streptococcus pneumoniae; conditions: R6 WT versus mutant strains, 5, 10 or 20 μg/ml, 30 min, 1 h or 2 h, 37°C, preliminary work (S7 Fig)
# Protocol: Bacterial cells were routinely grown until OD600nm = 0.3 in THY and 5 mL of culture were centrifuged for 10 min at 5,000 g at 4°C. The pellet was resuspended in 5 ml of sterile PBS buffer and diluted twice at 1/100. 200 μl of the final dilution was incubated for 30 min, 1 h or 2 h at 37°C, 5% CO2 in 96-well plate with 5, 10 or 20 μg/ml of hNP1. Next, 10 μl from the final dilution (control cells at time zero in the absence of HNP-1) and the 96-well plate (cells incubated with HNP1) were plated onto pre-cast THY-agar medium supplemented with 4% defibrinated horse blood and incubated overnight at 37°C, […]. The next day, colonies were counted.
compound,measurement,setting,value
CN[C@H](CC(C)C)C(=O)N[C@H]1C(=O)N[C@@H](CC(N)=O)C(=O)N[C@H]2C(=O)N[C@H]3C(=O)N[C@H](C(=O)N[C@H](C(=O)O)c4cc(O)cc(O)c4-c4cc3ccc4O)[C@H](O)c3ccc(c(Cl)c3)Oc3cc2cc(c3O[C@@H]2O[C@H](CO)[C@@H](O)[C@H](O)[C@H]2O[C@H]2C[C@](C)(N)[C@H](O)[C@H](C)O2)Oc2ccc(cc2Cl)[C@H]1O [vancomycin],Transcription of the bceAB genes,[1],no upregulation
same,Effect on ATPase activity of BceAB,[2],did not significantly affect
same,"MIC, Δhk01",S. pneumoniae R800 Δhk01,0.25 µg/mL
same,"Minimum Inhibitory Concentration, WT","S. pneumoniae R6 WT; 2-fold broth dilution, Todd-Hewitt medium, 96-well plates, start OD600 0.002, 37°C, A600 followed 15 h, two to four biological replicates, each technical duplicates",0.5 µg/mL
same,Fold sensitivity displayed by the KO strains,S. pneumoniae R6 WT; KO strains versus WT MIC,1
same,"MIC, ΔbceAB",[3],0.25 µg/mL
same,"Minimum Inhibitory Concentration, WT","S. pneumoniae D39 WT; 2-fold broth dilution, Todd-Hewitt medium, 37°C, 15 h, two to four biological replicates, each technical duplicates",0.25 µg/mL
same,Fold sensitivity diplayed by the KO strains,S. pneumoniae D39 WT; KO strains versus WT MIC,1
same,"MIC, ΔbceAB-Δhk01-PcomX-hk01",[4],0.25 µg/mL
same,"Minimum Inhibitory Concentration, ΔbceAB",S. pneumoniae R6 ΔbceAB,0.5 µg/mL
same,"Minimum Inhibitory Concentration, Δtcs01",S. pneumoniae R6 Δtcs01,0.5 µg/mL
same,"MIC, WT",S. pneumoniae R800 WT,0.25 µg/mL
same,"Minimum Inhibitory Concentration, ΔbceAB/tcs01",[5],0.25 µg/mL
same,"Minimum Inhibitory Concentration, ΔbceAB/tcs01",[6],0.5 µg/mL
same,"Minimum Inhibitory Concentration, Δtcs01",S. pneumoniae D39 Δtcs01,0.25 µg/mL
same,"MIC, bceAB-gfp",[7],0.25 µg/mL
same,"Minimum Inhibitory Concentration, ΔbceAB",S. pneumoniae D39 ΔbceAB,0.25 µg/mL
same,"MIC, Δhk01-PcomX-hk01",[8],0.25 µg/mL
BceAB transporter from S. pneumoniae (Streptococcus pneumoniae D39),Km,[9],1000 µM
same,Km,[10],1300 µM
HNP1: human neutrophil defensin HNP1; purchased from Vivitide,Resistance promoted by BceAB,[11],does not promote resistance

# From PMC9020739, “Identification of a two-component regulatory system involved in antimicrobial peptide resistance in Streptococcus pneumoniae” (PLoS Pathogens, 2022)
